Reference: patent US6893846B2, “Primers for use in detecting beta-lactamases” (priority 1998, dated 2005)
≈ marks a conversion by molar mass, not a printed value.

Experiments:
[1] = tested on: SHV and TEM genes; assay: PCR amplification with TEM and SHV primers; design: species or system Klebsiella pneumoniae
Experimental: (§1) The organisms were inoculated into 5 ml of Luria Bertani (LB) broth (Difco, Detroit, Mich.) and incubated for 20 hours at 37° C. with shaking. Cells from 1.5 ml of overnight culture were harvested by centrifugation at 17,310×g in an Hermle centrifuge for 5 minutes. After the supernatant was decanted, the pellet was resuspended in 500 μl of distilled water. The cells were lysed by heating at 95° C. for 10 minutes and cellular debris was removed by centrifugation for 5 minutes at 17,310×g. The supernatant was used as source of template for amplification.
(§2) The following oligonucleotide primers specific for the SHV and TEM genes were designed by using MacVector version 4.5 (Kodak/IBI): SHV genes: A [5′-([…])-3′] (SEQ ID NO:10) and B [5′-([…])-3′] (SEQ ID NO:11) corresponding to nucleotide numbers 103 to 121 and 988 to 970, respectively, of Mercier et al., Antibicrob. Agents Chemother. 34:1577-1583 (1990)); TEM genes: C [5′-([…])-3′ (SEQ ID NO:5) and D [5′-([…])-3′ (SEQ ID NO:1) corresponding to nucleotide numbers 90 to 105 and 1062 to 1042, respectively, of Sutcliff et al., Proc. Nat. Aca. Sci. USA, 75:3737-3741 (1978). Primers A and B amplified a 885 base pair fragment while primers C and D amplified a 971 base pair fragment. The specificity of the SHV and TEM primers for amplification of SHV and TEM genes respectively was tested by using the following beta-lactamase controls; TEM-I (pACYC177), MIR-1 (from K. pneumoniae96D) and SHV-7 (pCLL3410).
PCR amplifications were carried out on a DNA Thermal Cycler 480 instrument (Perkin-Elmer, Cetus, Norwalk, Conn.) using the Gene Amp DNA amplification kit containing AmpliTaq polymerase (Perkin Elmer, Roche Molecular Systems, Inc., Branchburg, N.J.). The composition of the reaction mixture was as follows: 10 mM Tris-HCl (pH 8.3), 50 mM KCl, 0.1% TRITON X-100, 1.5 mM MgCl2, 0.2 mM (each) of the four deoxynucleoside triphosphates, and 1.2 U of AmpliTaq in a total volume of 49 μl. A total of 1 μl of sample lysate was added to the reaction mixture, and was centrifuged briefly before […] of mineral oil was layered on the surface. The PCR program consisted of an initial denaturation step at 96° C. for 15 seconds; followed by 24 cycles of DNA denaturation at 96° C. for 15 seconds, primer annealing at 50° C. for 15 seconds and primer extension at 72° C. for 2 minutes. After the last cycle the products were stored at 4° C. The PCR products (1/10 volume) were analyzed by electrophoresis using 1.4% agarose gels in TAE buffer (0.04 M Tris-acetate, 0.002 M EDTA [pH 8.5]). The gels were stained with ethidium bromide and the PCR products were visualized with ultra-violet light. […] The larger product which corresponded to the expected size of the SHV specific product was gel purified using a 1.4% agarose in TAE gel and the purified PCR product was used for sequence analysis.

[2] = tested on: SHV and TEM genes; assay: PCR amplification with TEM and SHV primers; design: species or system Escherichia coli
Experimental: as §1, §2
PCR amplifications were carried out on a DNA Thermal Cycler 480 instrument (Perkin-Elmer, Cetus, Norwalk, Conn.) using the Gene Amp DNA amplification kit containing AmpliTaq polymerase (Perkin Elmer, Roche Molecular Systems, Inc., Branchburg, N.J.). The composition of the reaction mixture was as follows: 10 mM Tris-HCl (pH 8.3), 50 mM KCl, 0.1% TRITON X-100, 1.5 mM MgCl2, 0.2 mM (each) of the four deoxynucleoside triphosphates, and 1.2 U of AmpliTaq in a total volume of 49 μl. A total of 1 μl of sample lysate was added to the reaction mixture, and was centrifuged briefly before […] of mineral oil was layered on the surface. The PCR program consisted of an initial denaturation step at 96° C. for 15 seconds; followed by 24 cycles of DNA denaturation at 96° C. for 15 seconds, primer annealing at 50° C. for 15 seconds and primer extension at 72° C. for 2 minutes. After the last cycle the products were stored at 4° C. The PCR products (1/10 volume) were analyzed by electrophoresis using 1.4% agarose gels in TAE buffer (0.04 M Tris-acetate, 0.002 M EDTA [pH 8.5]). The gels were stained with ethidium bromide and the PCR products were visualized with ultra-violet light. […]

[3] = tested on: SHV and TEM genes; assay: PCR amplification with TEM and SHV primers; design: species or system Proteus mirabilis; details: P. mirabilis Pit 85 (pI 5.6, TEM-26-type)
Experimental: as §1
The following oligonucleotide primers specific for the SHV and TEM genes were designed by using MacVector version 4.5 (Kodak/IBI): SHV genes: A [5′-([…])-3′] (SEQ ID NO:10) and B [5′-([…])-3′] (SEQ ID NO:11) corresponding to nucleotide numbers 103 to 121 and 988 to 970, respectively, of Mercier et al., Antibicrob. Agents Chemother. […]
PCR amplifications were carried out on a DNA Thermal Cycler 480 instrument (Perkin-Elmer, Cetus, Norwalk, Conn.) using the Gene Amp DNA amplification kit containing AmpliTaq polymerase (Perkin Elmer, Roche Molecular Systems, Inc., Branchburg, N.J.). […] The PCR products (1/10 volume) were analyzed by electrophoresis using 1.4% agarose gels in TAE buffer (0.04 M Tris-acetate, 0.002 M EDTA [pH 8.5]). […]

[4] = tested on: K. pneumoniae 225; assay: NCCLS microdilution susceptibility test; type: cell-based, Klebsiella pneumoniae; details: Klebsiella pneumoniae, 225
[5] = tested on: K. pneumoniae 225; assay: NCCLS disk diffusion assay; type: cell-based, Klebsiella pneumoniae; details: disk diffusion, Kleb 225
[6] = tested on: E. aerogenes; assay: Double-disk potentiation test; type: cell-based, Enterobacter aerogenes; details: all the E. aerogenes strains selected; potentiation by clavulanic acid
Text: This test described by Jarlier et al., Rev. Infect. Dis.

[7] = tested on: E. aerogenes; assay: Vitek automated susceptibility system; type: cell-based, Enterobacter aerogenes; details: the 31 selected E. aerogenes strains
Text: Among all E. aerogenes recovered from clinical specimens during an eighteen month period (September 1993 to March 1995), thirty-one E. aerogenes strains showing a resistance phenotype different from that observed with derepressed mutants normally encountered at the Hunter Holmes McGuire Medical Center, Richmond, Va. were selected for this study. The strains selected were intermediate to ceftriaxone but resistant to ceftazidime when tested with the Vitek automated susceptibility system (bioMerieux Vitek, St. Louis, Mo.). Derepressed mutants previously isolated from this center were usually resistant to both ceftriaxone and ceftazidime.

[8] = tested on: E. coli HB101 transformant (17 kb plasmid); details: disk diffusion, Tr (17 kb) = transformant E. coli HB101
[9] = tested on: E. coli C600 transconjugant; details: disk diffusion, Tc = transconjugate E. coli C600
[10] = tested on: K. pneumoniae 225; details: test drug disk around amoxicillin-clavulanate disk
[11] = tested on: K. pneumoniae 225; assay: Three-dimensional test (enzymatic inactivation of antibiotics); details: beta-lactamase-mediated hydrolysis by K. pneumoniae 225, lawn E. coli ATCC 25922

In the case of “SHV primers: primer pair A (SEQ ID NO:10) and B (SEQ ID NO:11) specific for the SHV genes (DNA 1 CACTCAAGGATGTATTGTG; DNA 2 TTAGCGTTGCCAGTGCTCG; listed as DNA, chemistry not given here)”, the Amplification with primers ([1]; K. pneumoniae Pit 16 (pI 5.6, TEM-26-type)) is reported as “No”, the Amplification with primers ([1]; K. pneumoniae Pit 82 (pI 8.2, SHV-5)) is reported as “Yes” and the Amplification with primers ([1]; K. pneumoniae Pit 100 (pI 7.6, SHV-2)) is reported as “Yes”. For the same molecule, the Amplification with primers ([2]; E. coli Pit 56 (pI 7.6, SHV-2)) was “Yes”, the Amplification with primers ([2]; E. coli Pit 64 (pI 5.6, TEM-26-type)) was “No” and the Amplification with primers [3] was “No”.

For `CO/N=C(\C(=O)N[C@@H]1C(=O)N2C(C(=O)O)=C(CSc3nc(=O)c(=O)[nH]n3C)CS[C@H]12)c1csc(N)n1` [ceftriaxone], the MIC [4] was 16 µg/mL (≈ 28.9 µM), the “Zone Size” value [5] was 13 mm and the double disk test [6] was “positive”. For the same molecule, the Vitek susceptibility result [7] was “intermediate”, the “Zone Size” value [8] was 32 mm and the “Zone Size” value [9] was 12 mm. For the same molecule, the “clavulanate double-disk potentiation test” value [10] was “positive” and the three dimensional test [11] was “positive”.
